Measurements as given in patent publication US20090312414A1, “Treatment Of Lower Urinary Tract Dysfunction With CB2-Receptor-Selective Agonists” (priority 2008, published 2009).
pIC50: −log10 of the molar value.

Tests used:
CB2 receptor = CB2 receptor (Homo sapiens, UniProt P34972); experiment: CB2 binding assay (displacement of radiolabeled agonist); conditions: for pIC50: displaces 50% of a radiolabeled agonist
[1] = test system: urethane-anesthetized rats, acetic acid model; experiment: Cystometry in acetic acid bladder hyperactivity model; type: in vivo, rat; conditions: for Effect on intercontraction interval (ICI): any tested dose i.v., 20, 40 or 60 min after administration
Procedure: As used herein, the term “acute” means that the animals were dosed only one time, 30 minutes prior to taking the cystometry measurements (i.e., 30 minutes prior to the observation period). The acetic acid-induced model is an irritative model in which increased micturition frequency (decreased micturition interval) and reduced bladder capacity cystometry may be obtained after an intravesical infusion of a dilute solution of acetic acid (McMurray G, Casey J H, Naylor A M. Animal models in urological disease and sexual dysfunction. Br J Pharmacol. 2006; 147 Suppl:S62; Kakizaki H, de Groat W C. Role of spinal nitric oxide in the facilitation of the micturition reflex by bladder irritation. J Urol 1996; 155:355).
Adult female Wistar rats (Janvier, Le Genest Saint Lisles, France), weighing 225-250 g were used. They were delivered to the laboratory at least 5 days before the experiments in order to be acclimatized to laboratory conditions, and were given food (Teklad Global 16% Protein Rodent Diet, Harlan, Gannat, France) and water ad libitum. The animal room was maintained at 21-24° C. with a 12/12 hours alternating light-dark cycle (light phase 07:00-19:00).
Rats were anesthetized by intraperitoneal injection of urethane (1.5 g/kg). After making a midline incision of the abdomen, a polyethylene catheter (0.3 mm ID and 0.7 mm OD) was implanted in the bladder through the dome. An IV catheter (0.58 mm ID and 0.96 mm OD) was also introduced into a jugular vein for test substance administration.
CB2-receptor-selective agonists (compounds of Formulas II, III and IV) were initially dissolved in a vehicle containing a co-solvent mixture of Cremophor EL® (70%, BASF Corporation, Florham Park, N.J.) and ethanol (30%) as a 20-fold concentrated stock solution of the highest dose for testing. For lower doses, individual 20× stock solutions in Cremophor EL® (70%) and ethanol (30%) were also prepared by further dilution of the original 20× stock solution. Just prior to use, the appropriate 20× compound stock solution or vehicle was diluted 1:20 dilution (v:v) with saline to give the appropriate final concentration for dosing, and a single test substance or its vehicle were administered intravenously in a volume of 5 ml/kg and at an infusion rate of 0.2 ml/min.
Cystometric investigations were performed in the urethane anesthetized rats after bladder and jugular vein catheter implantation surgery. The bladder catheter was connected via a T-tube to a MX 860 Novatrans III Gold strain gauge (Medex Medical SARL, Nantes-Carquefou, France) and to a single-syringe infusion pump (70-2208 Model II Plus, Harvard Apparatus; Les Ulis, France). Physiological saline or 0.2% acetic acid (AA) in saline was infused into the bladder at a constant flow rate (0.05 ml/min), and intravesical pressure was recorded continuously using a MacLab/8e interface (ADInstruments Pty Ltd., Castle Hill, Australia) and the Chart software program. After a control period of 30 minutes (to calculate basal values), a single test substance or its vehicle were administered IV and the intravesical pressure was recorded for 1 hour after compound administration.
Intravesical pressure data were analyzed with Microsoft Excel software. The micturition parameters measured were the following: Basal Pressure (“BP,” mmHg); Threshold Pressure (“ThP,” pressure at which micturition occurs, mmHg); Amplitude of Micturition (“AM,” pressure between ThP and Micturition Pressure, mmHg); Intercontraction Interval (“ICI,” time between two subsequent micturitions, sec); Micturition Frequency (“MF,” number of micturition contractions per 15 minute interval); and Area Under the Curve (“AUC” per 15 minute interval, mmHg·sec) was calculated from the lowest intravesical pressure value during the 15 minute interval. Bladder capacity (“BC”) was measured in ml.
For each rat, basal values for each parameter were calculated as the mean of the last four micturitions before vehicle or test substance administration. […]

CB1 receptor = CB1 receptor (Homo sapiens, UniProt P21554); experiment: biochemical; type: binding; conditions: displaces 50% of a radiolabeled agonist
Chain of CB1 receptor (P21554 whole entry): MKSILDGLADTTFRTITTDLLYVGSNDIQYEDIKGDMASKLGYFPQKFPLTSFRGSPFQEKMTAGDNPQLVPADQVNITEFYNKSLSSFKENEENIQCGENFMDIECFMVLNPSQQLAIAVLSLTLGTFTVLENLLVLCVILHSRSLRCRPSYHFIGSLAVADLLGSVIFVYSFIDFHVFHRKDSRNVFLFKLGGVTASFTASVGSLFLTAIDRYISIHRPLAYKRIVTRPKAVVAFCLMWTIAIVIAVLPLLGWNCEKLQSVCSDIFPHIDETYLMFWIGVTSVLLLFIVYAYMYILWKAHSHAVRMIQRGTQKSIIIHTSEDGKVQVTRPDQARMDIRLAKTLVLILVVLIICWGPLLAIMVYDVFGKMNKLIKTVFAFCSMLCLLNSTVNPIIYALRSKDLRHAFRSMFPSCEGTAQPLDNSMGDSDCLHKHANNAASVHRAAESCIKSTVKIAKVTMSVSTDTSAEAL

Chain of CB2 receptor (P34972 whole entry): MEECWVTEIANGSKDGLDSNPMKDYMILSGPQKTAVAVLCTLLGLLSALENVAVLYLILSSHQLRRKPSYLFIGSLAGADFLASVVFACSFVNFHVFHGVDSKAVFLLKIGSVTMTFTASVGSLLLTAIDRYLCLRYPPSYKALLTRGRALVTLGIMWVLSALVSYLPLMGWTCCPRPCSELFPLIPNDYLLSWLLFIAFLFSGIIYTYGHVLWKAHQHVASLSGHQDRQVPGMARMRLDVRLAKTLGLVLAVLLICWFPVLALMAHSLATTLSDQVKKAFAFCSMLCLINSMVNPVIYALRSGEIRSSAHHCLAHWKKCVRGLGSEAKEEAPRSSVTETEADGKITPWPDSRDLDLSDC

Row | SMILES | CB2/CB1 affinity ratio (CB2 receptor) | pIC50 (CB2 receptor) | Effect on threshold pressure (ThP) ([1]; 3 mg/kg i.v., all time points, vs basal values) | Effect on basal pressure (BP) ([1]; 3 mg/kg i.v., from 0 to 60 min, p<0.05) | Effect on intercontraction interval (ICI) ([1]; vs basal values) | pIC50 (CB1 receptor) | Effect on threshold pressure (ThP) ([1]; 0.5 mg/kg i.v., at 20, 40 and 60 min, p<0.05) | Effect on threshold pressure (ThP) ([1]; 1.5 mg/kg i.v., at 40 min, p<0.05) | Effect on threshold pressure (ThP) ([1]; 5 mg/kg i.v., at 20 and 40 min, p<0.05) | Effect on basal pressure (BP) ([1]; 5 mg/kg i.v., at 20 min, p<0.05) | Effect on threshold pressure (ThP) ([1]; 15 mg/kg i.v., at 20 min, vs basal values) | Effect on basal pressure (BP) ([1]; any dose (1.5, 5, 15 mg/kg i.v.) or time point, vs basal values)
1 | CCCCCCC(C)(C)c1cc(O)c2c(c1)OC1CCCCCC21 (centres unmarked) [Formula III] | 14 | 8.19 | significantly increased | significantly increased | no effect | 7.04 |  |  |  |  |  | 
2 | CCCCC(C)(C)c1cc(O)c([C@H]2C=C(CO)[C@H]3C[C@@H]2C3(C)C)c(O)c1 [Formula II] | 21 | 8.08 |  |  | no effect | 6.74 | Significant increases | Significant increases | Significant increases | significantly increased |  | 
3 | O=S(=O)(NCC1CC1)c1ccc(Nc2ccc(Cl)cc2Cl)cc1C(F)(F)F [Formula IV, N-Cyclopropylmethyl-4-(2,4-dichloro-phenylamino)-2-trifluoromethyl-benzenesulfonamide] | 10 | 7.52 |  |  | no effect | 6.50 |  |  |  |  | significant increase | not changed
